“Also recorded” adds a separate entry of the source. Like-named read-outs stand apart in the source and are kept apart here.
Experiment: Jugular vein plasma levels after intravenous administration in jugular vein cannulated, freely moving rats
Type: in vivo, Wistar ST rats
Settings: for Cmax: analyte HT, at 5 min after intravenous administration, read-out: C max of HT in plasma
Method: SPF Wistar ST rats (6 weeks of age, male, 180 ± 20 g of body weight) were purchased from Japan SLC Inc. (Hamamatsu, Japan). The rats were housed in an air-conditioned room at 22 ± 2°C under cycles of 12 hours dark and 12 hours light and given free access to a commercial diet and water for a week. The rats were then fasted for over 16 hours before the experiments. The present study was approved by the Animal Care and Use Committee at Kagawa University, and the rat treatment conformed to the Rules of Animal Experiments at Kagawa University. After fasting, the rats were cannulated with a polyethylene tube (PE-50; 0.58 mm I.D., 0.965 mm O.D.) into the jugular vein, portal vein, or bile duct under anesthesia with isoflurane inhalation using a WP-SAA01 (LMS Co., Ltd., Tokyo, Japan). A small hole was made in the vein or duct using pointed scissors and cannulated with the polyethylene tube. After inserting the tube, it was fixed at the edge of the vein or duct. The jugular vein and portal vein cannulas penetrated under the skin and were then tied at the back of the rats, and the bile duct cannula was tied at the abdomen of the rats. Bile duct-cannulated rats were then restrained in a Bollman cage (Natsume Seisakusho Co., Ltd., Tokyo, Japan). Before further experiments, the rats were allowed to recover from anesthesia. 3,4-[…] (300 mg/kg body weight; 936.51 μmol/kg) dissolved in 50% polyethylene glycol aqueous solution was administered orally via a stomach tube to the portal vein cannulated rats. Blood samples (450 μL) were then collected using a heparinized syringe attached to the cannula before administration and 5, 15, 30, 60, 120, and 240 min after administration. Urine was also collected before administration and 0 to 2 h and 2 to 4 h after administration. For intravenous administration, 3,4-[…] (10 mg/kg; 31.22 μmol/kg) was injected into the jugular vein, and blood (450 μL) was collected using a heparinized syringe before administration and 5, 15, 30, 60, 120, and 240 min after administration via the jugular vein cannula. The blood (450 μL) collected was immediately cooled on ice and centrifuged at 15,000 rpm for 5 min at 4°C to obtain over 200 μL plasma. Urine was also collected before administration and 0 to 2 h and 2 to 4 h after administration. Bile was collected via the bile duct cannula before administration and 0 to 2 h and 2 to 4 h after intravenous administration. The collected plasma, urine, and bile were immediately stored in an ice box until further analyses. HT (oral administration: 100 mg/kg; 648.66 μmol/kg, intravenous administration: 10 mg/kg; 64.87 μmol/kg) and Ole (oral administration: 300 mg/kg; 555.02 μmol/kg, intravenous administration: 10 mg/kg; 18.50 μmol/kg) were investigated using the same method as described above. Metabolites were deconjugated by using β-glucuronidase (500 U) and sulfatase (50 U) in 50 μL 625 mM MOPS (pH 6.8), which was added to 200 μL of plasma, urine, or bile. The mixture was incubated for 45 min at 37°C and subjected to extraction using QuEChERS [33]. […] Shimadzu, Kyoto, Japan) equipped with a Shim-pack XR-ODS column (3.0 mm I.D. × 100 mm; Shimadzu, Kyoto, Japan) at 40°C with a mobile phase of 0.5% TFA-1% acetonitrile aqueous solution (A) and 0.5% TFA-75% acetonitrile aqueous solution (B). The elution conditions are described as follows: isocratic elution of 0% B was maintained for 4.0 min; linear gradient 0 to 4% B, 4.0-4.5 min; linear gradient 4.0-16.0% B, 4.5-16.0 min; linear gradient 16.0-100% B, 16.0-25.0 min; isocratic elution of 100% B, 25.0-26.0 min; and linear gradient 100 to 0% B, 26.0-26.1 min, with a flow rate of 0.5 mL/min. Injection volume was 50 μL. All eluted peaks were detected at 279 nm with a diode array detector (SPD-M20A; Shimadzu, Kyoto, Japan). The absorption of 3,4-[…], and Ole was evaluated by dose-normalized 4 h area under the curve (AUC0→4 h/Dose) and C max/Dose values (Table 2). […]

[1] = after intravenous administration, 10 mg/kg

Q: Which results are given for CC=C(C=O)C(CC=O)CC(=O)OCCc1ccc(O)c(O)c1 (stereo not shown) [3,4-DHPEA-EDA, 3,4-dihydroxyphenylethyl elenolate dialdehydic form]?
A: AUC0→4 h-i.v./Dosei.v. (analyte HT in jugular vein plasma after intravenous administration): 259.2 μM·min·kg/μmol; Cmax (10 mg/kg): ~131 µM; AUC0→4 h-i.v./Dosei.v. (analyte HVA in jugular vein plasma after intravenous administration): 22.4 μM·min·kg/μmol; AUC0→4 h-i.v./Dosei.v. (analyte HVAOH in jugular vein plasma after intravenous administration): 56.0 μM·min·kg/μmol; Detection of intact 3,4-DHPEA-EDA in plasma and hematocytes (jugular vein, after intravenous administration, 10 mg/kg, 31.22 μmol/kg, 10 mg/kg): not detected; also recorded: not observed

Q: What does the source list for OCCc1ccc(O)c(O)c1 [Hydroxytyrosol, 2-(3,4-dihydroxyphenyl) ethyl alcohol, reference compound]?
A: Time at which intact compound disappeared from the systemic circulation [1]: about 15 min; Cmax (male, Wistar ST, rat, plasma, 10 mg/kg): 1740 µM

Q: What does the source list for C/C=C1/[C@H](O[C@@H]2O[C@H](CO)[C@@H](O)[C@H](O)[C@H]2O)OC=C(C(=O)OC)[C@H]1CC(=O)OCCc1ccc(O)c(O)c1 [Oleuropein, reference compound]?
A: Other metabolites in plasma throughout the blood sampling (after intravenous administration of Ole, 10 mg/kg): could not be detected; Time at which intact compound disappeared from the systemic circulation [1]: ≤ 60 min; concentration at 5 min (male, Wistar ST, rat, plasma, after intravenous administration, 10 mg/kg, 18.50 μmol/kg, read-out: Ole detected in the plasma at 5 min): 502 µM

Source: publication PMC4745926, “Absorption, Metabolism, and Excretion by Freely Moving Rats of 3,4-DHPEA-EDA and Related Polyphenols from Olive Fruits (Olea europaea)” (Journal of Nutrition and Metabolism, 2016)
